The results in this text go back to patent US20240284907A1, “NOVEL DERIVATIVES OF NON-CODED AMINO ACIDS AND THEIR USE AS HERBICIDES” (FortePhest LTD., priority 2021, published 2024).

Holding throughout (assay type): in vivo
Assay [1] deals with Seeds of Lettuce R. (Super-Jericho). As to the kind of experiment: Filter paper bioassay with lettuce seeds: germination, Fully Effective Concentration (FEC). Conditions: lowest concentration mostly preventing lettuce seed germination, assessed after 6 days. The source says:
Materials: Seeds of Lettuce R. (Super-Jericho, non-sterilized) were obtained from Ben Shahar Moshe Ltd., 99% purity. The test compounds listed in the Table 2 below were synthetized de novo or purchased from different vendors.
Filter Paper Bioassays with Lettuce seeds: The protocol is following Bertin et al. 2009 and Movellan et al. 2014 with specified modifications as described below.
Seeds were placed on Whatman no. 1 filter paper (Whatman, Middlesex, U.K.) in Petri dishes (10 seeds per plate) with 2.0 ml of aqueous solution of a test material in concentration ranged from 0 (control) to 1 mmol/l were placed in a tray tilted at 45°. The trays were kept in dark for 48 hours and then transferred to the growth chamber with 6/18 dark/light cycle for 4 days. Each experiment was performed at least with two repeats.
The development of plants' radicle and shoots were visually assessed 6 days after the beginning of the test to determine Fully Effective Concentration (FEC) of a test material. In the context of the invention, FED is defined as the lowest concentration level of a test material that mostly preventing seeds germination.

The test system is the same in assay [2]. Put plainly: Filter paper bioassay with lettuce seeds: germination and early plant development, Minimal Effective Concentration (MEC). Conditions: lettuce seeds on filter paper, 0 to 1 mmol/l, visually assessed after 6 days. An outline of the steps: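 Non-sterilized Super-Jericho lettuce seeds, 10 per dish, on filter paper wetted with aqueous test solution at 0–1 mmol/l. Kept 48 h dark, then 4 days at 6/18 dark/light. MEC is the lowest concentration causing no germination or radicle/shoot malformation by visual scoring at day 6; at least two repeats.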

Assay [3] concerns Romaine lettuce (Lactuca sativa L.) plants. Put plainly: Post-emergence herbicidal activity on potted Romaine lettuce plants (soil or foliar application). Conditions: lettuce at 2 to 3 leaves, two weeks after treatment. The protocol: The tests were performed on Romaine lettuce (Lactuca sativa L.) plants at the stage 2 to 3 leaves. The plants were grown in mini-pots packed with soil, dimensions 2×2×5 cm, one plant per mini-pot. Test compounds were dissolved in 0.1% aqueous solution water solution of Silwet adjuvant to final concentrations ranging from 0 (Control) to 0.0001%. The test compounds were applied on soil (1 ml per pot) or foliar with airbrush (0.1 ml per pot). Each concentration was tested on 20 plants. Two weeks after the treatment the herbicidal effects of the respective test material were visually evaluated (aboveground part and roots. Then the aboveground part of the plants was neatly cut and weighed (wet weight) to assess the growth inhibition caused by the test compound. The growth inhibition (GI) was calculated as following: […]
Where Mt and Mc are median wet weight of treated and control plants, respectively. In the context of the invention, the herbicidal effect was assessed by concentration of the compound causing more than 85% of Growth Inhibition (GI) or irreversible damage of the plants (Table 3). Herbicidal activity of selected DHAAs is summarized in Table 4 (soil application) and Table 5 (Foliar application).

Regarding “2,2-difluoro-2-[5-(trifluoromethyl)-1,3-thiazol-2-yl]acetic acid [compound 5710]”, the “FEC (Fully Effective Concentration)” value in assay [1] stood at 0.100 mM. In addition, the “Score (activity score of Minimal Effective Concentration, MEC)” value in assay [2] is on record as “Strong (0.01 mM)”.
For “2,2-difluoro[2-(trifluoromethyl)-1,3-thiazol-5-yl]acetic acid [compound 5700]” the same measures were 2.000 mM and “Moderate (0.1 mM)”.
In the case of “2,5,8,11,14-pentaoxahexadecan-16-yl 2-(2-chloro-1,3-thiazol-4-yl)-2,2-difluoroacetate [compound 5778]”, the “FEC (Fully Effective Concentration)” value in assay [1] is 5.000 mM. Also, the “Score (activity score of Minimal Effective Concentration, MEC)” value in assay [2] is “very strong”. Moreover, the “Score (test material causing more than 85% of Growth Inhibition or irreversible plant damage)” value in assay [3] (foliar application) was “moderate (0.5)”.
As for “2-(2,5-dichlorothiophen-3-yl)-2,2-difluoroacetamide [compound 5636]”, the “FEC (Fully Effective Concentration)” value in assay [1] is 0.100 mM. In assay [2], the “Score (activity score of Minimal Effective Concentration, MEC)” value is recorded as “Strong (0.01 mM)”.
As to “2-(2-bromo-1,3-thiazol-4-yl)-2,2-difluoroacetic acid [compound 5730]”, the “FEC (Fully Effective Concentration)” value in assay [1] was determined as 0.010 mM. In addition, the “Score (activity score of Minimal Effective Concentration, MEC)” value in assay [2] was “very strong”. Besides, the “Score (test material causing more than 85% of Growth Inhibition or irreversible plant damage)” value in assay [3] (foliar application) and in assay [3] (soil application) was “strong (0.01 to 0.05)” throughout.
For “2-(2-methoxyethoxy)ethyl(2-chloro-1,3-thiazol-4-yl)(difluoro)acetate [compound 5746]”, the “FEC (Fully Effective Concentration)” value in assay [1] came to 0.001 mM. Besides, in assay [2], the “Score (activity score of Minimal Effective Concentration, MEC)” value is on record as “very strong”. Further, the “Score (test material causing more than 85% of Growth Inhibition or irreversible plant damage)” value in assay [3] (foliar application) and in assay [3] (soil application) was “strong (0.01 to 0.05)” each time.
With “2-(2-methoxyethoxy)ethyl(2-chloro-1,3-thiazol-4-yl)(difluoro)acetate [compound 5771]”, the “FEC (Fully Effective Concentration)” value in assay [1] is given as 0.050 mM. Further, the “Score (activity score of Minimal Effective Concentration, MEC)” value in assay [2] is on record as “very strong”. Besides, in assay [3] (foliar application), the “Score (test material causing more than 85% of Growth Inhibition or irreversible plant damage)” value was “strong (0.01 to 0.05)”.
“2-(4-methylphenyl)-2-oxoethyl(2-chloro-1,3-thiazol-4-yl)(difluoro)acetate [compound 5738]”: in assay [1], the “FEC (Fully Effective Concentration)” value came out at 0.010 mM. Also, in assay [2], the “Score (activity score of Minimal Effective Concentration, MEC)” value is given as “very strong”. In addition, the “Score (test material causing more than 85% of Growth Inhibition or irreversible plant damage)” value in assay [3] (foliar application) was “moderate (0.5)”; in assay [3] (soil application), “strong (0.01 to 0.05)”.
For the molecule “2-chloro-4-(2-hydrazinylethyl)-1,3-thiazole [compound 5702]”, the “FEC (Fully Effective Concentration)” value in assay [1] is given as 2.000 mM. Further, the “Score (activity score of Minimal Effective Concentration, MEC)” value in assay [2] is reported as “Moderate (0.1 mM)”.
For “2-oxo-2-(pyridin-2-yl)ethyl(2-chloro-1,3-thiazol-4-yl)(difluoro)acetate [compound 5740]” the same measures were 0.050 mM and “very strong”.
Turning to “2-oxo-2-phenylethyl(2-chloro-1,3-thiazol-4-yl)(difluoro)acetate [compound 5741]”, the “FEC (Fully Effective Concentration)” value in assay [1] is listed as 0.050 mM. In assay [2], the “Score (activity score of Minimal Effective Concentration, MEC)” value is given as “very strong”.
For “3-(2,5-dichlorothiophen-3-yl)-2-oxopropanoic acid [compound 5612]” the same measures were 0.100 mM and “Strong (0.01 mM)”.
As to `NC(=O)Cc1cc(Cl)sc1Cl` [compound 5609, 2-(2,5-dichlorothiophen-3-yl)acetamide], in assay [1], the “FEC (Fully Effective Concentration)” value is on record as 1.000 mM. For the same molecule, in assay [2], the “Score (activity score of Minimal Effective Concentration, MEC)” value was “Strong (0.01 mM)”.
As for `O=C(O)/C=C/c1sc(Cl)nc1Cl` [compound 5622, (2E)-3-(2,4-dichloro-1,3-thiazol-5-yl)prop-2-enoic acid], the “FEC (Fully Effective Concentration)” value in assay [1] was 1.000 mM. For the same molecule, the “Score (activity score of Minimal Effective Concentration, MEC)” value in assay [2] was “Moderate (0.1 mM)”.
For `O=C(O)CNC(=O)C(F)(F)c1cc(Cl)sc1Cl` [compound 5644, [2-(2,5-dichlorothiophen-3-yl)(difluoro)acetamido]acetic acid] the same measures were 1.000 mM and “Strong (0.01 mM)”.
For `NCCCCc1cc(Cl)sc1Cl` [compound 5657, 4-(2,5-dichlorothiophen-3-yl)butan-1-amine] the same measures were 0.100 mM and “Moderate (0.1 mM)”.
For `Cc1sc(C(F)(F)F)nc1C(F)(F)C(=O)O` [compound 5717, 2,2-difluoro-2-[5-methyl-2-(trifluoromethyl)-1,3-thiazol-4-yl]acetic acid] the same measures were 0.100 mM and “Strong (0.01 mM)”.
As to `O=C(O)C(F)(F)c1nc(Cl)sc1F` [compound 5751, (2-chloro-5-fluoro-1,3-thiazol-4-yl)(difluoro)acetic acid], the “FEC (Fully Effective Concentration)” value in assay [1] came to 0.100 mM. Also, the “Score (activity score of Minimal Effective Concentration, MEC)” value in assay [2] is listed as “strong.strong”.
For `O=C(Cc1ccc(Br)cc1)C(F)(F)c1csc(Cl)n1` [compound 5756, 3-(4-bromophenyl)-1-(2-chloro-1,3-thiazol-4-yl)-1,1-difluoropropan-2-one] the same measures were 0.010 mM and “very strong”.
For `O=C(Cc1csc(Cl)n1)OCc1ccccc1` [compound 5758, benzyl 2-(2-chloro-1,3-thiazol-4-yl)acetate] the same measures were 0.100 mM and “Strong (0.01 mM)”.
For `O=C(OCc1ccccc1)C(F)(F)c1csc(Cl)n1` [compound 5762, benzyl (2-chloro-1,3-thiazol-4-yl)(difluoro)acetate] the same measures were 0.010 mM and “very strong”.
As to `NC(N)=NCCc1cc(Cl)sc1Cl` [compound 5769, N″-[2-(2,5-dichlorothiophen-3-yl)ethyl]guanidine], the “FEC (Fully Effective Concentration)” value in assay [1] turned out to be 0.100 mM. In addition, the “Score (activity score of Minimal Effective Concentration, MEC)” value in assay [2] was “Strong (0.01 mM)”.
For `N#Cc1cscc1C(F)(F)C(=O)O` [compound 5779, (4-cyanothiophen-3-yl)(difluoro)acetic acid] the same measures were 1.000 mM and “Strong (0.01 mM)”.
For “(4-bromophenyl)methyl(2,5-dichlorothiophen-3-yl)acetate [compound 5735]” the same measures were 0.500 mM and “strong.strong”.
Take “ethyl 2-(2-chloro-1,3-thiazol-4-yl)-2,2-difluoroacetate [compound 5784]”: the “FEC (Fully Effective Concentration)” value in assay [1] turned out to be 0.050 mM. Further, in assay [2], the “Score (activity score of Minimal Effective Concentration, MEC)” value is listed as “very strong”.
